Patent US20060134063A1, “Agents for proliferating pancreatic beta-cells of the islets of langerhans, agents for suppressing apoptosis of said cells, and screening of candidate compounds for these agents” (priority 2000, published 2006)
pIC50: −log10 of the molar value.

How the values were obtained:
[1] = target: T1, poly(ADP-ribose) synthetase/polymerase (PARP) (Rattus norvegicus, UniProt P27008); experiment: GMSA binding reaction of RINm5F nuclear extracts, effects of ADP-ribosylation; type: biochemical; conditions: 1 mM β-NAD+ in the GMSA binding reaction; read-out: concentrations of half maximal inhibition (quenching of the effect of β-NAD+ on the GMSA band)
T1 construct: Nuclear extracts from RINm5F cells were prepared as described; endogenous in cells; host or cells: RINm5F (rat insulinoma) nuclear extract
T1 sequence (P27008 whole entry): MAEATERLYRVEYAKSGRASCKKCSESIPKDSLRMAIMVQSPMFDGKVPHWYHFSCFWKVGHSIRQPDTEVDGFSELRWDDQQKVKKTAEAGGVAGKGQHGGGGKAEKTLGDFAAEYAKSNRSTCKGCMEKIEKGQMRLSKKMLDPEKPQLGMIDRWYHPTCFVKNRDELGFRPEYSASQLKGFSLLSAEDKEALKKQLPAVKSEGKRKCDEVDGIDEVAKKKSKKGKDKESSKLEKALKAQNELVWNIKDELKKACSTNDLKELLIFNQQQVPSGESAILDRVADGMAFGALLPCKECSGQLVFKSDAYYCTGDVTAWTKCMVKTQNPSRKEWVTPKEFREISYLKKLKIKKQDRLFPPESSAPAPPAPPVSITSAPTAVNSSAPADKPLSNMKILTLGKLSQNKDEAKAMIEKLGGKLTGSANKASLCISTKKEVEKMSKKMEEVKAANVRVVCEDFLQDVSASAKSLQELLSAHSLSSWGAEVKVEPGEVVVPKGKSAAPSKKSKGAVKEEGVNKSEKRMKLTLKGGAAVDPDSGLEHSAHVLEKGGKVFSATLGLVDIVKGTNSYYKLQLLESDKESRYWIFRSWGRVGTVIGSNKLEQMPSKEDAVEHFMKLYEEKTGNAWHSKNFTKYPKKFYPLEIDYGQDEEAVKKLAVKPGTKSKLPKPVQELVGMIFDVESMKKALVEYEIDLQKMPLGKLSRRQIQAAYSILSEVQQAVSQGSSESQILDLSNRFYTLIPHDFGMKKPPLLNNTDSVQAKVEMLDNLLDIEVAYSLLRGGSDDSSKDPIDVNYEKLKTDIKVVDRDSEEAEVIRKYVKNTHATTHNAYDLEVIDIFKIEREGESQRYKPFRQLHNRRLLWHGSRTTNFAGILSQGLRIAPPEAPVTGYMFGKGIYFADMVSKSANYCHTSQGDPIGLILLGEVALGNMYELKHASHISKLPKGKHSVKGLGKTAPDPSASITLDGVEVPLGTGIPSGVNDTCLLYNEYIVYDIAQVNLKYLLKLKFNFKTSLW
Description: The nuclear extract (10 μg) was incubated in a final volume of 20 μl of buffer containing 20 mM Tris-HCl (pH 7.9), 2 mM MgCl2, 50 mM NaCl, 2 mM EDTA, 10% glycerol, 0.1% Nonidet P-40, 1 mM DTT, 50 μg/ml bovine serum albumin and 1 μg of poly(dI-dC). After incubation for 10 min at room temperature, 2.5 pmol of double-stranded DNA, previously labeled by an exchange reaction using MEGALABEL (Takara Shuzo) and [γ-^32P]ATP (Amersham Pharmacia Biotech), were added and incubated for 30 min at room temperature, then the binding reactions were resolved on pre-run 6% acrylamide gel. […] After electrophoresis, DNA/proteins were electrophoretically transferred to a PolyScreen™ PVDF membrane (NEN).
Poly(ADP-ribosyl)ation of nuclear proteins was performed in the same condition as GMSA in the presence of 62 nM [adenylate-^32P]NAD^+ (2×10^6 cpm, NEN). The ADP-ribosylated proteins were precipitated by the addition of 9 volume of acetone, separated by SDS-PAGE (12.5%) and autoradiographed.

[2] = test system: RINm5F cell lines, #1, #6, and #24, which stably express the Reg protein receptor; experiment: TUNEL apoptosis assay in RINm5F cell lines #1, #6, #24 expressing Reg protein receptor; type: cell-based, rat; conditions: 1,000 nM Reg protein; 20 ng/ml IL-6, 100 nM dexamethasone, 10 mM nicotinamide; 24 h
Description: Rat insulinoma RINm5F cell lines, #1, #6, and #24, which stably express Reg protein receptor (Kobayashi, S. et al. (2000) J. Biol. Chem. 275, 10723-10726) were similarly cultured as in Example 4 and 1,000 nM Reg protein and HGF at varied concentrations, 0, 2.5, and 25 ng/ml were added thereto. Twenty-four hours after the addition of Reg protein/HGF, apoptosis was measured by TUNEL method using an Apoptosis Screening kit (Wako Pure Chemical Industries Ltd., Osaka, Japan) as described in Kobayashi, S. et al. (2000) J. Biol. Chem. 275, 10723-10726.

HGF gene = experiment: RT-PCR of HGF gene expression in RINm5F cells; type: cell-based, rat; conditions: 10 mM nicotinamide; 24 h
Description: Rat insulinoma RINm5F cells were seeded at 1.5×10^5 cells/ml in a 25-cm^2 culture bottle. […] After a further 24-h incubation, total RNA was prepared using cesium trifluoroacetate as described in […]. et al. (1993) J. Biol. Chem. 268, 26052-26054 and Akiyama, T. et al. (2001) Proc. Natl. Acad. Sci. USA 98, 48-53. RT-PCR was performed using this RNA as a template and primers corresponding to nucleotides 1,556-1,575 and 2,208-2,227 of rat HGF mRNA (Okajima, A. et al. (1990) Eur. J. Biochem. 193, 375-381) as described in Sun, W. et al. (1999) Brain Res. 851, 46-53, to detect the expression of HGF gene. PCR was carried out by a two-step protocol as described in Sun, W. et al. (1999) Brain Res. 851, 46-53, with 33 cycles of the first step [denaturation (95° C., 40 s), primer annealing (60° C., 40 s), and primer elongation (72° C., 1 min)] followed by the 5 cycles of the second step [denaturation ([…], 40 s), primer annealing (60° C., 40 s), and primer elongation (72° C., 1 min)].

pIC50 [1]: 3.60
Structure (SMILES): NC(=O)c1cccnc1 [nicotinamide]
apoptosis induced by Reg protein (TUNEL) [2]: did not
HGF gene expression (RT-PCR), PARP inhibitor added to IL-6/dexamethasone (HGF gene): further enhanced HGF gene expression
